According to EP4631938A1, “NITROGEN-CONTAINING HETEROCYCLE WITH SEROTONIN RECEPTOR-BINDING ACTIVITY AND CARBOCYCLIC DERIVATIVE” (Shionogi & Co., Ltd, priority 2022, dated 2024):

Legend:
[1] = target: T1, human recombinant 5-HT2A receptor (Homo sapiens, UniProt P28223); assay: Test Example 1-2: 5-HT2A receptor binding inhibition test ([3H]-Ketanserin; non-specific ligand Ketanserin); settings: [3H]-Ketanserin; non-specific binding with 500 µmol/L Ketanserin; room temperature (25°C), 1.5 hours; read-out: h 5-HT2A Ki
T1 construct: expressed in transfected cells; host or cells: Jump-In HEK cells (membrane preparation)
T1 sequence (P28223 whole entry): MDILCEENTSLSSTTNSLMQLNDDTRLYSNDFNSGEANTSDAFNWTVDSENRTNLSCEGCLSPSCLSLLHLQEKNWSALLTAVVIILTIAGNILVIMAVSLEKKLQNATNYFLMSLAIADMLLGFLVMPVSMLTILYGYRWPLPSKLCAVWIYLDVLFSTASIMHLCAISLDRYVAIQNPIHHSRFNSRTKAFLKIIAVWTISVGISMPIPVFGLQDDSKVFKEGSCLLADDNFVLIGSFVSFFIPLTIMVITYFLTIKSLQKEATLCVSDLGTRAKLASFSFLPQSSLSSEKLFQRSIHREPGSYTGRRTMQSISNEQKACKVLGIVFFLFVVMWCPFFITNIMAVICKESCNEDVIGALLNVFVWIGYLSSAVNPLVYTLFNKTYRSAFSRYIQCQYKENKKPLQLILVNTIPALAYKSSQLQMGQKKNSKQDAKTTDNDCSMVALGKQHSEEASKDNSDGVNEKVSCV
Procedure: The Kd value is calculated when the lot of the cell membrane is changed. 1 mmol/L non-specific binding calculating compound dissolved in DMSO or DMSO is previously dispensed to the microplate by 0.5 µL, and the cell membrane is diluted with an Assay buffer. The radioactive ligand solution is diluted step by step, and counts are checked with a liquid scintillator. The Assay buffer containing diluted cell membranes is dispensed by 50 µL/well into the microplate. The radioactive ligand solution is then dispensed by 50 µL/well into the microplate and the plate is sealed. The microplate is allowed to stand for 1.5 hours at room temperature (25°C). During this time, 50 mmol/L Tris-HCl (pH 7.4) is dispensed by 50 µL/well into the UniFilter plate and allowed to stand at 4°C for 1 hour or longer. Thereafter, filtration is performed with a Cell Harvester (PerkinElmer). The radioactive ligand solution is dispensed by 10 µL/well into empty wells of the UniFilter plate. After drying the UniFilter plate at room temperature, MicroScinti20 is dispensed by 50 µL/well into the UniFilter plate, and the plate is sealed. UniFilter plate is allowed to stand at room temperature overnight. The radioactivity of [^3H]-Ketanserin bound to the 5-HT2A receptor is measured using Microbeta2 (PerkinElmer) at a measurement time of 1 min/well. The Saturation curve is drawn from the measured value, and the Kd value is calculated from the slope of the Scatchard Plot.
A compound solution dissolved in DMSO is dispensed to a microplate by 0.5 µL, and a cell membrane and a hot ligand are each diluted with an Assay buffer. The Assay buffer containing diluted cell membrane is then dispensed by 50 µL/well into the microplate. The radioactive ligand solution is then dispensed by 50 µL/well into the microplate and the plate is sealed. Thereafter, the microplate is allowed to stand at room temperature (25°C) for 1.5 hours. During this time, 50 mmol/L Tris-HCl (pH 7.4) is dispensed by 50 µL/well into the UniFilter plate and allowed to stand at 4°C for 1 hour or longer. Thereafter, filtration is performed with a Cell Harvester (PerkinElmer). After drying the UniFilter plate at room temperature, MicroScinti20 is dispensed by 50 µL/well into the UniFilter plate, and the plate is sealed. UniFilter plate is allowed to stand at room temperature overnight. The radioactivity of [^3H]-Ketanserin bound to the 5-HT2A receptor is measured using Microbeta2 (PerkinElmer) at a measurement time of 1 min/well. Non-specific binding is calculated from the radioactivity of [^3H]-Ketanserin in the presence of 500 µmol/L Ketanserin of unlabeled ligand, and total binding is calculated from the radioactivity of [^3H]-Ketanserin in the absence of the compound of the present invention (Vehicle). Finally, the Ki value is calculated from the dose-response curve.
(§1) (The binding activity of the compound according to the present invention is calculated from the following binding inhibition rate (%).) Inhibition rate (%) = [1−(c−a)/(b−a)] × 100 [formula] • a; average cpm of non-specific binding • b; average cpm of total binding • c; cpm in the presence of the test compound
(§2) The compounds of the present invention were tested essentially as described above.

[2] = target: T2, human recombinant 5-HT2C receptor (Homo sapiens, UniProt P28335); assay: Test Example 2: 5-HT2C receptor binding inhibition test ([3H]-Mesulergine; non-specific ligand Serotonin HCl); settings: human serotonin 5-HT2C receptor binding activity
T2 construct: expressed in transfected cells; host or cells: Jump-In HEK cells (membrane preparation)
T2 sequence (P28335 33-458): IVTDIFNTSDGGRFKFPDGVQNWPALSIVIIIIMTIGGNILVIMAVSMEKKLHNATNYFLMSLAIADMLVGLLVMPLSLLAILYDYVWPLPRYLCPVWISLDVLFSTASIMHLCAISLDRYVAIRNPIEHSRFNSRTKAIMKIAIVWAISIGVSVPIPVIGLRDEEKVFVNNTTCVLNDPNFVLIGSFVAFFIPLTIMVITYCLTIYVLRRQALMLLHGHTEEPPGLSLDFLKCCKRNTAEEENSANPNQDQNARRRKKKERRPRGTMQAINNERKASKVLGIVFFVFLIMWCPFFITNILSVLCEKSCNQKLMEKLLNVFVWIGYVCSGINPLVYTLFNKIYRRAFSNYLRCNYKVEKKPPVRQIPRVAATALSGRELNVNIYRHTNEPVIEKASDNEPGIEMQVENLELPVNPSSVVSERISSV
Procedure: The Kd value is calculated when the lot of the cell membrane is changed. 1 mmol/L non-specific binding calculating compound dissolved in DMSO or DMSO is previously dispensed to the microplate by 0.5 µL, and the cell membrane is diluted with an Assay buffer. The radioactive ligand solution is diluted step by step, and counts are checked with a liquid scintillator. The Assay buffer containing diluted cell membranes is dispensed by 50 µL/well into the microplate. The radioactive ligand solution is then dispensed by 50 µL/well into the microplate and the plate is sealed. The microplate is allowed to stand at 37°C for 2 hours. During this time, 50 mmol/L Tris-HCl (pH 7.4) is dispensed by 50 µL/well into the GF/B UniFilter plate and allowed to stand at 4°C for 1 hour or longer. Thereafter, filtration is performed with a Cell Harvester (PerkinElmer). The radioactive ligand solution is dispensed by 10 µL/well into empty wells of the GF/B UniFilter plate. After drying the GF/B UniFilter plate at room temperature, MicroScinti20 is dispensed by 50 µL/well into the GF/B UniFilter plate, and the plate is sealed. GF/B UniFilter plate is allowed to stand at room temperature overnight. The radioactivity of [^3H]-Mesulergine bound to the 5-HT2C receptor is measured using Microbeta2 (PerkinElmer) at a measurement time of 1 min/well. The Saturation curve is drawn from the measured value, and the Kd value is calculated from the slope of the Scatchard Plot.
A compound solution dissolved in DMSO is dispensed to a microplate by 0.5 µL, and a cell membrane and a hot ligand are each diluted with an Assay buffer. The Assay buffer containing diluted cell membrane is then dispensed by 50 µL/well into the microplate. The radioactive ligand solution is then dispensed by 50 µL/well into the microplate and the plate is sealed. The microplate is then allowed to stand at 37°C for 2 hours. During this time, 50 mmol/L Tris-HCl (pH 7.4) is dispensed by 50 µL/well into the GF/B UniFilter plate and allowed to stand at 4°C for 1 hour or longer. Thereafter, filtration is performed with a Cell Harvester (PerkinElmer). After drying the GF/B UniFilter plate at room temperature, MicroScinti20 is dispensed by 50 µL/well into the GF/B UniFilter plate, and the plate is sealed. GF/B UniFilter plate is allowed to stand at room temperature overnight. The radioactivity of [^3H]-Mesulergine bound to the 5-HT2C receptor is measured using Microbeta2 (PerkinElmer) at a measurement time of 1 min/well. Non-specific binding is calculated from the radioactivity of [^3H]-Mesulergine in the presence of 500 µmol/L Serotonin HCl of unlabeled ligand, and total binding is calculated from the radioactivity of [^3H]-Mesulergine in the absence of the compound of the present invention (Vehicle). Finally, the Ki value is calculated from the dose-response curve.
as §1, §2

Row | SMILES | Ki [1] [nM] | Ki [2] [nM]
1 | Cn1ncc(Br)c1-c1nc(Nc2nc3ccc(F)cc3s2)c(F)cc1OCCO [Compound I-388] | 0.366 | 7.66
2 | Cn1ncc(Br)c1-c1nc(Nc2ccc(C(F)(F)F)c(Cl)c2)ncc1OCCO [Compound I-351] | 0.242 | 1.77
3 | Cc1cnn(C)c1-c1nc(Nc2ccc(OC(F)(F)F)cc2)ncc1OCCO [Compound I-356] | 0.163 | 7.79
4 | Cn1ncc(Br)c1-c1cc(Nc2ccc(C(F)F)nn2)c(F)cc1OCCO [Compound I-403] | 0.565 | 29.9
5 | Cn1ncc(Cl)c1-c1cc(Nc2ncc(C(F)(F)F)cc2F)c(Cl)cc1OCCO [Compound I-409] | 0.42 | 2.12
6 | Cc1cc(Cl)cnc1Nc1cc(-c2c(C)cnn2C)c(OCCO)cc1F [Compound I-172] | 0.812 | 2.49
7 | Cn1ncc(Br)c1-c1cc(Nc2cc(C(F)(F)F)c(Cl)cn2)ncc1OCCO [Compound I-275] | 0.273 | 0.722
8 | Cn1ncc(Br)c1-c1cc(Nc2ccc(Cl)cn2)ncc1OCCO [Compound I-284] | 0.301 | 2.07
9 | Cc1cc(Cl)ccc1Nc1ncc(OCCO)c(-c2c(Br)cnn2C)n1 [Compound I-343] | 0.184 | 2.42
10 | Cc1cnn(C)c1-c1nc(Nc2ccc(C(F)(F)F)cc2)c(F)cc1OCCO [Compound I-283] | 0.267 | 2.41
11 | Cc1cc(OC(F)(F)F)cnc1Nc1cc(-c2c(C)cnn2C)c(OCCO)cn1 [Compound I-180] | 0.346 | 1.86
12 | Cn1ncc(Br)c1-c1cc(Nc2ncc(C(F)(F)F)cn2)c(Cl)cc1OCCO [Compound I-397] | 0.413 | 1.8
13 | Cn1ncc(Br)c1-c1nc(Nc2ccc(C(F)(F)F)cn2)c(Cl)cc1OCCO [Compound I-387] | 0.318 | 3.82
14 | Cn1ncc(Br)c1-c1cc(Nc2ccc(OC(C)(F)F)cn2)ncc1OCCO [Compound I-301] | 0.189 | 1.38
15 | Cn1ncc(Br)c1-c1cc(Nc2nc3ccccc3o2)ncc1OCCO [Compound I-291] | 0.423 | 16.4

More lines, now with the values ahead:

Row | Ki [1] [nM] | Ki [2] [nM] | SMILES
16 | 2.9 | 4.66 | Cc1nc(CO[C@H]2CCOC2)nc(C)c1-c1cc(Nc2ncc(C(F)(F)F)cc2Cl)ncc1OCCO [Compound I-377]
17 | 0.379 | 0.278 | Cc1nc(C)c(-c2cc(Nc3ccc(-c4ccc(C(F)(F)F)cc4)cn3)ncc2OCCO)c(C)n1 [Compound I-303]
18 | 5.12 | 2.64 | COCc1nc(C)c(-c2cc(Nc3ncc(OCCCC(F)(F)F)cc3Cl)ncc2OCCO)c(C)n1 [Compound I-238]
19 | 0.357 | 19 | CNC(=O)c1ccc(F)c(-c2cc(Nc3ncc(C(F)(F)F)cc3F)ncc2OCCO)c1 [Compound I-391]
20 | 1.6 | 1.17 | COCc1nc(C)c(-c2cc(Nc3ncc(-n4ccc(C(F)(F)F)n4)cc3Cl)ncc2OCCO)c(C)n1 [Compound I-325]
21 | 7.43 | 7.37 | COCc1nc(C)c(-c2cc(Nc3ncc(-c4cnn(C(F)F)c4)cc3Cl)ncc2OCCO)c(C)n1 [Compound I-237]
22 | 0.752 | 0.709 | COCc1ccc(-c2cnc(Nc3cc(-c4c(C)nc(COC)nc4C)c(OCCO)cn3)c(Cl)c2)cc1 [Compound I-264]
23 | 6.75 | 2.1 | COCc1nc(C)c(-c2cc(Nc3ncc(C4CC(F)(F)C4)cc3Cl)ncc2OCCO)c(C)n1 [Compound I-195]
24 | 2.74 | 4.42 | COCc1nc(C)c(-c2cc(Nc3ncc(-c4ncc(OC)cn4)cc3Cl)ncc2OCCO)c(C)n1 [Compound I-253]
25 | 0.972 | 0.47 | COCc1nc(C)c(-c2cc(Nc3ncc(-c4ccc(C#N)c(F)c4)cc3Cl)ncc2OCCO)c(C)n1 [Compound I-265]
26 | 0.217 | 0.663 | Cn1ncc(C#N)c1-c1cc(Nc2ccc(-c3ccc(Cl)cc3)cn2)ncc1OCCO [Compound I-189]
27 | 6.26 | 7.23 | COCc1nc(C)c(-c2cc(Nc3ncc(-c4ccn(C(F)F)n4)cc3Cl)ncc2OCCO)c(C)n1 [Compound I-326]
28 | 1.72 | 58.2 | COC(=O)c1ccc(C)c(-c2cc(Nc3ncc(C(F)(F)F)cc3F)ncc2OCCO)c1 [Compound I-369]
29 | 0.511 | 5.37 | Cc1nc(C)c(-c2cc(Nc3ccc(Cl)cn3)c(F)cc2OCCO)c(C)n1 [Compound I-167]
30 | 0.506 | 0.864 | Cc1nc(C)c(-c2cc(Nc3ncc(-c4ccc(F)cc4)cc3F)ncc2OCCO)c(C)n1 [Compound I-316]
31 | 0.453 | 6.92 | Cc1nc(C)c(-c2cc(Nc3ccc(-c4ccc(F)cc4)cn3)ncc2O[C@H](C)CO)c(C)n1 [Compound I-317]
32 | 1.74 | 1.78 | COCc1nc(C)c(-c2cc(Nc3ncc(-n4ccc(Cl)n4)cc3Cl)ncc2OCCO)c(C)n1 [Compound I-330]
33 | 0.888 | 2.15 | Cc1nc(C)c(-c2cc(Nc3ncc(OC(F)(F)F)cc3F)c(F)cc2OCCO)c(C)n1 [Compound I-174]
34 | 1.24 | 0.727 | COCc1nc(C)c(-c2cc(Nc3ncc(-n4cc(Cl)cn4)cc3Cl)ncc2OCCO)c(C)n1 [Compound I-236]
35 | 9.02 | 4.19 | COCc1nc(C)c(-c2cc(Nc3ncc(OCC(F)(F)C(F)F)cc3Cl)ncc2OCCO)c(C)n1 [Compound I-333]
